Several values for one entry are separate records, joined by “and”; a condition that tells them apart may be missing. Equal entries are not always repeated. Where two headings read alike, the source gives them in different places.
What was measured:
[1] = Pharmacokinetic study: plasma kinetics after oral administration of free or encapsulated εVin; type: in vivo, rats; conditions: for occurrence of metabolites after oral administration: rats, both administration forms, data not shown; for k el: read-out: Lambda z (converted); for MRT: read-out: MRT (mean residence time) (converted); for half-life: read-out: T½; for AUC0-t: 0-4 h
Protocol: (§1) Experiments were conducted in accordance with Directive 2010/63/EU [51] and approved by the Bordeaux University Institutional Ethics Committee for Animal Research (IEC-AR CEEA 50, MESR approval A18380). Male Wistar rats (Janvier-LABS, Saint Berthevin, France) were maintained in controlled conditions: 12 h light/12 h dark cycle, humidity 50–60% and an ambient temperature of 24 ± 1 °C (animal facility agreement number: B33-063-917). Free access to food and water was allowed up to 16 h before experiments started. Rats were randomly divided into two groups. Group A (n = 5, average weight = 307.8 ± 7.7 g) received εVin dissolved in propylene glycol (5.25 mg/mL), while group B (n = 6, average weight = 308 ± 10.7 g) received the same dose of εVin but encapsulated in MLLs and suspended in ultra-pure water. Both solutions were administrated by oral gavage and precisely measured to reach a dose of 20 mg/kg bw of εVin. Blood was collected through the tail vein, making a slanting incision during the first collection. Rats were slightly anesthetized by isoflurane before every blood sample collection (600 µL) at the following time points: 20, 40, 60, 100, 140, 180 and 210 min after gavage. They were sacrificed at 240 min by a high dose of isoflurane and rapid exsanguination with saline solution injected in the right ventricular cardiac cavity with a peristaltic pump (10 mL/min). All blood samples were collected in heparinized tubes and centrifuged (10,000× g, 10 min) before sampling plasma. The liver, kidneys and four white adipose tissues (epididymal, retroperitoneal, mesenteric and subcutaneous) were removed, weighed and immediately immersed in liquid nitrogen. All blood and tissues samples were kept at −80 °C until analysis.
(§2) Extractions were performed as previously described with some modifications to improve quantification. For plasma extraction, 360 µL of methanol (4 °C) were added to an aliquot of 120 µL of plasma. The sample was vortexed during three minutes before centrifugation (30 min, 12,000× g, 4 °C). The supernatant (380 µL) was removed and evaporated using a SpeedVac concentrator (Labconco CentriVap, Thermo Fisher Scientific, Waltham, MA, USA). Residue was kept in −80 °C before analysis. For tissues extraction, tissues (about 0.5 g) were first cut with scalpels before being mixed with 4 mL of methanol:water (80:20, v:v). Samples were homogenized with an Ultra-Turrax homogenizer (IKA, Staufen, Deutschland) before being intensely vortexed. Then, samples were centrifuged 20 min at 10,000× g and 4 °C before sampling 3 mL of supernatant. All supernatants were evaporated using a SpeedVac concentrator and kept at −80 °C. Residues were reconstituted in 60 µL and 250 µL of methanol:water (50:50, v:v) or plasma and tissue, respectively. They were vortexed intensely and centrifuged at 12,000× g during 30 min at 4 °C before being injected the supernatant in LC-HRMS.
(§3) The quantification of εVin and the total of glucuronides (εVG) in plasma and tissues was performed as previously described with some modifications concerning the mass parameters. The U-HPLC separation was carried out with a Vanquish Flex system (Thermo Fisher Scientific, Les Ulis, France) consisting in a binary pump, an autosampler and a heated column compartment. The liquid chromatography separation was performed as previously detailed using C18 column (BEH C18 2.1 mm × 100 mm, 1.7 µm particle size, Waters, Guyancourt, France). The flow rate was set as 450 µL/min. The injection volume was 5 µL and the eluents were 0.1% formic acid in water for A and 0.1% formic acid in acetonitrile for B. The eluent B varied as follows: 0 min, 25%; 0.5 min, 25%; 3.6 min, 50%; 3.9 min, 50%; 4 min, 100%; 5.7 min, 100%; 5.8 min, 25%; 7 min, 25%. The column and sample temperature were 30 °C and 20 °C, respectively. The Exactive benchtrop Orbitrap mass spectrometer equipped with a HESI probe (both from Thermo Fisher Scientific, Bremen, Germany) was used. […]

[2] = parameters: method as in PMID 27175336; conditions: rats, oral 70 mg/kg bw, after hydrolysis with glucuronidase; cited from earlier work
[3] = Quantification in plasma, liver, kidneys and white adipose tissues 4 h after oral administration; type: in vivo; conditions: rats, 4 h after oral 20 mg/kg bw εVin
Protocol: as §1, §2, §3

[4] = Literature pharmacokinetics of εVin after oral administration in mice (Kim et al.); type: in vivo; conditions: oral 40 mg/kg bw (ref 31) versus 20 mg/kg bw in this study
[5] = parameters: method as in PMID 27902942; conditions: mice, oral 40 mg/kg bw; cited from earlier work
[6] = parameters: method as in PMID 30400351; conditions: rats, intraperitoneal injection, cited from earlier work; for Cmax: metabolites expressed as equivalent of the native form
[7] = male, Wistar, rat, plasma, po, 20 mg/kg, rat plasma, oral 20 mg/kg bw εVin, encapsulated form (MLLs)
[8] = male, Wistar, rat, plasma, po, 20 mg/kg, rat plasma, oral 20 mg/kg bw εVin, free form
[9] = rat plasma, oral 20 mg/kg bw εVin, encapsulated form (MLLs)
[10] = rat plasma, oral 20 mg/kg bw εVin, free form
[11] = rat plasma, oral 20 mg/kg bw εVin, free form, 20 mg/kg

For O=C(O)C1OC(Oc2ccc(C3Oc4cc(O)cc(C=Cc5ccc(O)cc5)c4C3c3cc(O)cc(O)c3)cc2)C(O)C(O)C1O (stereo not drawn) [V1G], which “occurrence of metabolites after oral administration” value (“occurrence of metabolites” for short) [1] is on record?
The value was “traces”.

Which “occurrence of metabolites” value [1] does the source give for O=C(O)[C@H]1O[C@@H](Oc2cc(/C=C/c3ccc(O)cc3)c3c(c2)O[C@H](c2ccc(O)cc2)[C@H]3c2cc(O)cc(O)c2)[C@H](O)[C@@H](O)[C@@H]1O [V2G] here?
Its value is “largely in majority”.

Which “occurrence of metabolites” value [1] does the source give for O=C(O)C1OC(Oc2ccc(C=Cc3cc(O)cc4c3C(c3cc(O)cc(O)c3)C(c3ccc(O)cc3)O4)cc2)C(O)C(O)C1O (stereo not drawn) [V4G] here?
Its value is “traces”.

For Oc1ccc([C@H]2Oc3ccc(/C=C/c4cc(O)cc(O)c4)cc3[C@@H]2c2cc(O)cc(O)c2)cc1 [δ-viniferin], which “concentration of glucuronide metabolites relative to the native form” value [2] is on record?
Its value is “up to 7 fold”.

Which Cmax [1, 7] does the source give for Oc1ccc(/C=C/c2cc(O)cc3c2[C@@H](c2cc(O)cc(O)c2)[C@H](c2ccc(O)cc2)O3)cc1 [εVin, Trans-ε-viniferin] here?
The Cmax was 11.7 ± 7.3 nM.

And the k el [1, 7]?
Its k el is 0.000137 s⁻¹.

And the MRT [1, 7]?
The MRT was 3.27 h.

And the Tmax ([1]; male, Wistar, rat, plasma, po, 20 mg/kg, rat plasma, oral 20 mg/kg bw εVin, encapsulated form (MLLs), read-out: Tmax (converted))?
The Tmax was 0.333 h.

What about the half-life [1, 7] of the same molecule?
The half-life was 1.91 ± 1.34 h.

And the Cmax [1, 8]?
The Cmax was 15 ± 11 nM.

And the k el [1, 8]?
Its k el is 0.000345 s⁻¹.

What about the MRT [1, 8] of the same molecule?
Its MRT is 2.12 h.

And the Tmax ([1]; male, Wistar, rat, plasma, po, 20 mg/kg, rat plasma, oral 20 mg/kg bw εVin, free form, read-out: Tmax (converted))?
The Tmax was 1 h.

What about the half-life [1, 8] of the same molecule?
The half-life was 0.917 ± 0.565 h.

What about the “AUC0–∞” value [1, 9] of the same molecule?
Its value is 1660.1 ± 1313.1 pmol/mL/min.

What about the AUC0-t [1, 9] of the same molecule?
The AUC0-t was 1009.8 ± 328.3 pmol/mL/min.

What about the “AUC0–∞” value [1, 10] of the same molecule?
The value was 1919.7 ± 955.2 pmol/mL/min.

What about the AUC0-t [1, 10] of the same molecule?
The AUC0-t was 1689.1 ± 682.0 pmol/mL/min.

What about the Cmax [1, 11] of the same molecule?
Its Cmax is 15.3 ± 10.5 nM.

What about the concentration in kidneys ([3]; free form) of the same molecule?
The concentration in kidneys was ≤ 10 pmol/g of tissue.

And the concentration in liver ([3]; free form)?
The concentration in liver was ≤ 10 pmol/g of tissue.

And the “concentration in mesenteric adipose tissue” value ([3]; free form)?
The value was 92 ± 84 pmol/g of tissue.

What about the “concentration in subcutaneous adipose tissue” value ([3]; free form) of the same molecule?
Its value is 23 ± 12 pmol/g of tissue.

What about the “concentration in the three other adipose depots (epididymal, retroperitoneal, subcutaneous)” value ([3]; free form) of the same molecule?
The value was “around 20 pmol/g of tissue”.

What about the “AUC0-∞ of the literature study relative to the values of this study” value [4] of the same molecule?
The value was 3.6 times.

What about the bioavailability [5] of the same molecule?
The bioavailability was 0.77%.

What about the “maximal concentration (Cmax)” value [5] of the same molecule?
Its value is 42 ng/mL.

What about the Cmax [6] of the same molecule?
Its Cmax is 3090 ng/mL.

With Trans-ε-viniferin-glucuronide [εVG] as the molecule, how does the “increase of T1/2 by the encapsulation procedure” value ([1]; rat plasma, encapsulated versus free form, p < 0.05) read?
Its value is about 3 times.

And the “AUC0–∞” value [1, 9]?
The value was 432,315.4 ± 106,406.4 pmol/mL/min.

And the Cmax [1, 9]?
The Cmax was 1750 ± 876 nM.

And the Lambda z [1, 9]?
The Lambda z was 0.0074 ± 0.0036 * min^−1.

What about the Tmax [1, 9] of the same molecule?
The Tmax was 1.67 h.

And the AUC0-t [1, 9]?
Its AUC0-t is 307,086.4 ± 316,383.9 pmol/mL/min.

And the T½ ([1]; rat plasma, oral 20 mg/kg bw εVin, encapsulated form (MLLs), 20 mg/kg)?
The T½ was 1.98 ± 1.08 h.

And the “AUC0–∞” value [1, 10]?
Its value is 264,191.0 ± 123,786.4 pmol/mL/min.

What about the Cmax [1, 10] of the same molecule?
Its Cmax is 1670 ± 1100 nM.

What about the Lambda z [1, 10] of the same molecule?
Its Lambda z is 0.0198 ± 0.0056 min⁻¹.

What about the “MRT (mean residence time)” value [1, 10] of the same molecule?
The value was 2.062 ± 0.2 h.

And the Tmax [1, 10]?
Its Tmax is 1.67 h.

What about the AUC0-t [1, 10] of the same molecule?
The AUC0-t was 245,827.3 ± 114,219.8 pmol/mL/min.

What about the T½ [1, 11] of the same molecule?
The T½ was 0.633 ± 0.183 h and 0.637 ± 0.187 h.

And the “maximal plasma concentration of glucuronides relative to the aglycone (native) form” value ([1]; rat plasma, oral 20 mg/kg bw εVin, free form, listed as glucuronide forms, 20 mg/kg)?
The value was “more than 100 times”.

What about the “maximal plasma concentration of glucuronides relative to the aglycone (native) form” value ([1]; rat plasma, oral 20 mg/kg bw εVin, free form, listed as total glucuronides, 20 mg/kg) of the same molecule?
Its value is 108 times.

And the concentration in kidneys ([3]; encapsulated form)?
Its concentration in kidneys is 114 ± 12 pmol/g of tissue.

And the concentration in liver ([3]; encapsulated form)?
Its concentration in liver is 1206 ± 304 pmol/g of tissue.

And the “concentration in mesenteric adipose tissue” value ([3]; encapsulated form)?
Its value is 213 ± 81 pmol/g of tissue.

What about the “concentration in plasma at 4 h” value ([3]; encapsulated form) of the same molecule?
Its value is 700 ± 175 nM.

And the concentration in kidneys ([3]; free form)?
Its concentration in kidneys is 76 ± 39 pmol/g of tissue.

And the “concentration in kidneys relative to the native molecule” value ([3]; free form)?
The value was 14 times.

What about the concentration in liver ([3]; free form) of the same molecule?
Its concentration in liver is 604 ± 320 pmol/g of tissue.

What about the “concentration in liver relative to the native molecule” value ([3]; free form) of the same molecule?
Its value is 60 times.

And the “concentration in mesenteric adipose tissue” value ([3]; free form)?
Its value is 108 ± 75 pmol/g of tissue.

What about the “concentration in plasma at 4 h” value ([3]; free form) of the same molecule?
The value was 317 ± 186 nM.

What about the “concentration in subcutaneous adipose tissue” value ([3]; free form) of the same molecule?
The value was 105 ± 83 pmol/g of tissue.

And the Cmax [6]?
Its Cmax is 5160 ng/mL.

And the Tmax [6]?
Its Tmax is 1 h.
